Data on ten compounds can be found in patent publication US20040096356A1, “Assay device for determining analytes in a liquid dairy product” (priority 1997, published 2004).

Molecules are shown by their SMILES.

Holding throughout (assay type): binding
Assay [1] deals with T1, receptor BlaR-CTD (Bacillus licheniformis, UniProt P12287).
T1 construct: the receptor BlaR-CTD is the carboxy-terminal region of BlaR
Description: Five minutes test: strip test for β-lactam antibiotics in milk using BlaR-CTD. To be noted: for lowest concentration detected in a milk sample: in 5 minutes, positive when first band is less intense than second band; for Intensity 1st band: scale 0 to 10, reference band 6, 47° C., 3 min incubation + 2 min migration. From the text: (§1) According to a preferred embodiment of the invention an identifier is used which comprises a receptor sensitive to antibiotics having a β-lactam ring, which receptor is obtained from Bacillus licheniformis, such as the receptor BlaR or the receptor BlaR-CTD. The isolation and the peptide sequence of the protein BlaR are described in Y. Zhu et al., J. Bacteriol., 1137-1141 (1990); the receptor BlaR-CTD is the carboxy-terminal region of BlaR, whose isolation and peptide sequence are described in B. Joris et al., FEMS Microbiology Letters, 107-114 (1990).
(§2) This example illustrates the detection in milk of antibiotics having a β-lactam ring which are monitored by the health authorities. The test described in this example uses the receptor BlaR-CTD coupled with gold beads, which serve as labelling agents, and uses a support which is in the form of an assay device comprising a solid support on which membranes are fixed.
(§3) 3.79 ml of a solution of recognition agent BlaR-CTD having a concentration of 6.6 mg/ml are taken up in a sodium phosphate buffer, 20 mM pH 7. To this solution of BlaR-CTD are then added 41.71 ml of bicarbonate buffer (0.1 M sodium bicarbonate, pH 9) and 2 ml of a solution of N-hydroxysuccinimide 6-(biotinamido)caproic ester containing 2.23 mg/ml likewise of bicarbonate buffer. This solution is stirred gently on a LABINCO stirrer for tubes on a rotary axis (available from VEL, Belgium) at a rate of 2 revolutions/minute for 2 hours at ambient temperature and away from light. 2.5 ml of a solution of Tris buffer, 1 M pH 8 are incubated with the reaction mixture under the same conditions for 30 minutes. The solution thus obtained is dialysed against HNM buffer (Hepes 100 mM, pH 8, NaCl 100 mM, MgCl2 50 mM) for 24 hours. In this way a biotinylated BlaR-CTD solution is obtained which is diluted in HNM-BSA buffer (Hepes 500 mM, pH 8, NaCl 500 mM, MgCl2 250 mM, BSA 10 mg/ml) to a concentration of 250 μg of biotinylated BlaR-CTD per ml of buffer. This solution is stored at −20° C.
(§4) The biotinylated BlaR-CTD solution prepared in Example 3.1.1 is diluted 114.7 times with the HNM-BSA buffer (Hepes 500 mM, pH 8, NaCl 500 mM, MgCl2 250 mM, BSA 10 mg/ml). At room temperature, 22.5 parts by volume of this dilute biotinylated BlaR-CTD solution, 7.5 parts by volume of HNM-BSA buffer, 9.27 parts by volume of the gold particle suspension used to label the biotinylated BlaR-CTD and 6 parts by volume of reference gold particle suspension are mixed (see Example 3.1.4 below).
(§5) The first capture substance makes it possible to fix the BlaR-CTD coupled with the gold beads present in excess relative to the quantity of antibiotic present in the sample.
(§6) Assay devices containing membranes (2), (3) and (4) are used, assembled in accordance with the procedure described in Example 1.1. The membrane (3) of these devices carries on the proximal side the capture substance described in Example 32.1. and on the distal side the capture substance described in Example 3.2.2. The capture substances were deposited in accordance with the procedure described in Example 1.2.
Six samples of fresh milk are prepared, containing 0; 2; 4; 6; 8 and 10 ppb, repsectively, of cloxacillin. Each of these solutions is then analysed as follows.
An aliquot is taken of 200 μl of milk sample and 45.27 μl of solution prepared in Example 3.1.3, and is placed in a glass flask. This mixture is incubated at 47° C. for 3 minutes. An assay device is taken and is placed vertically in the glass flask such that the first end of the assay device is in contact with the mixture in such a way that the second end rests on the wall of the glass flask. The mixture is allowed to migrate over the assay device while the assembly is incubated at 47° C. for 2 minutes.
(§7) An intensity value ranging from 0 to 10 is awarded to the bands detected, the value 10 being given to the most intense band and the value 0 being given to the least intense band. On this scale, a value of 6 is awarded to the reference band. […]

Assay [2] has as its target T1, receptor BlaR-CTD. The assay can be described thus: 9-minute test: strip test for β-lactam antibiotics in milk using BlaR-CTD. To be noted: for lowest concentration detected in a milk sample: in 9 minutes, positive when first band is less intense than second band; for Intensity 1st band: scale 0 to 10, reference band 6, 47° C., 7 min incubation + 2 min migration.
From the text: as §1, §2, §3, §4, §5, §6
Six samples of fresh milk are prepared, containing 0; 4; 6; 8; 10 and 12 ppb, respectively, of cephapirin. Each of these solutions is then analysed as follows.
An aliquot is taken of 200 μl of milk sample and 45.27 μl of solution prepared in Example 3.1.3, and is placed in a glass flask. This mixture is incubated at 47° C. for 7 minutes. An assay device is taken and is placed vertically in the glass flask such that the first end of the assay device is in contact with the mixture in such a way that the second end rests on the wall of the glass flask. The mixture is allowed to migrate over the assay device while the assembly is incubated at 47° C. for 2 minutes.
as §7

Assay [3] addresses T1, receptor BlaR-CTD. The assay can be described thus: 3-minute rapid test: strip test for β-lactam antibiotics in milk using BlaR-CTD. To be noted: in 3 minutes; positive when first band is less intense than second band.
From the text: as §1, §2, §3, §4, §5, §6
7 samples of fresh milk are prepared, containing 0; 1; 2; 3; 4; 5 and 6 ppb, respectively, of penicillin G. Each of these solutions is then analysed as follows.
An aliquot is taken of 200 μl of milk sample and 45.27 μl of solution prepared in Example 3.1.3, and is placed in a glass flask. This mixture is incubated at 47° C. for 1 minute. An assay device is taken and is placed vertically in the glass flask such that the first end of the assay device is in contact with the mixture and such that the second end rests on the wall of the glass flask. The mixture is allowed to migrate over the assay device while the assembly is incubated at 47° C. for 2 minutes.
as §7

Assay [4] has as its target T1, receptor BlaR-CTD. The assay can be described thus: 20-minute test: strip test for β-lactam antibiotics in milk using BlaR-CTD. To be noted: for Intensity 1st band: scale 0 to 10, reference band 6, 47° C., 18 min incubation + 2 min migration.
From the text: as §1, §2, §3, §4, §5, §6
Six samples of fresh milk are prepared, containing 0; 20; 30; 40; 50 and 60 ppb, respectively, of ceftiofur. Each of these solutions is then analysed as follows.
An aliquot is taken of 200 μl of milk sample and 45.27 μl of solution prepared in Example 3.1.3, and is placed in a glass flask. This mixture is incubated at 47° C. for 18 minutes. An assay device is taken and is placed vertically in the glass flask such that the first end of the assay device is in contact with the mixture in such a way that the second end rests on the wall of the glass flask. The mixture is allowed to migrate over the assay device while the assembly is incubated at 47° C. for 2 minutes.
An intensity value ranging from 0 to 10 is awarded to the bands detected, the value 10 being given to the most intense band and the value 0 being given to the least intense band. On this scale, a value 6 is awarded to the reference band. […]

T1 sequence (P12287 340-601): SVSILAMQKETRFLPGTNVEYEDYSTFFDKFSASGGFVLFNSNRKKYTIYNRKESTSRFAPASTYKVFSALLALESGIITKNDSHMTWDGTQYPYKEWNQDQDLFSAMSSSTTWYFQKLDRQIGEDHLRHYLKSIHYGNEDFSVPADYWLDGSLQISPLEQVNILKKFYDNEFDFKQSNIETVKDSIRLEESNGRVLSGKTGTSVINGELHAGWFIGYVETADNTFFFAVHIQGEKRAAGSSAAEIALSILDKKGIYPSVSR

Turning to `Cc1onc(-c2ccccc2)c1C(=O)N[C@@H]1C(=O)N2[C@@H]1SC(C)(C)[C@@H]2C(=O)O` [oxacillin], the “lowest concentration detected in a milk sample” value (“lowest concentration detected” for short) on receptor BlaR-CTD [1] and at receptor BlaR-CTD [2] was 8 ppb throughout.

Turning to `Cc1onc(-c2c(Cl)cccc2Cl)c1C(=O)N[C@@H]1C(=O)N2[C@@H]1SC(C)(C)[C@@H]2C(=O)O` [dicloxacillin], the “lowest concentration detected” value at receptor BlaR-CTD [1] and at receptor BlaR-CTD [2] was 8 ppb each time.

As to `Cc1nnc(SCC2=C(C(=O)O)N3C(=O)[C@@H](NC(=O)Cn4cnnn4)[C@H]3SC2)s1` [cefazolin], the “lowest concentration detected” value was 60 ppb at receptor BlaR-CTD [1] and 45 ppb at receptor BlaR-CTD [2].

Consider `Cc1onc(-c2ccccc2Cl)c1C(=O)N[C@@H]1C(=O)N2[C@@H]1SC(C)(C)[C@@H]2C(=O)O` [Cloxacillin, cloxacillin], for which the “lowest concentration detected” value on receptor BlaR-CTD [3] is on record as “less than 10 ppb”; at receptor BlaR-CTD [1], 4 ppb; at receptor BlaR-CTD [2], 4 ppb. Also, the “Intensity 1st band” value was 6 on receptor BlaR-CTD [1] (2 ppb cloxacillin in fresh milk); 5 at receptor BlaR-CTD [1] (4 ppb cloxacillin in fresh milk); 3 at receptor BlaR-CTD [1] (6 ppb cloxacillin in fresh milk); 3 at receptor BlaR-CTD [1] (8 ppb cloxacillin in fresh milk); 3 at receptor BlaR-CTD [1] (10 ppb cloxacillin in fresh milk).

On to `CO/N=C(\C(=O)N[C@@H]1C(=O)N2C(C(=O)[O-])=C(C[n+]3cccc4c3CCCC4)CS[C@H]12)c1csc(N)n1` [cefquinone], for which the “lowest concentration detected” value at receptor BlaR-CTD [1] and at receptor BlaR-CTD [2] was “less than 20 ppb” throughout.

As to `CC1(C)S[C@@H]2[C@H](NC(=O)[C@H](N)c3ccccc3)C(=O)N2[C@H]1C(=O)O` [ampicillin], the “lowest concentration detected” value turned out to be 5 ppb at receptor BlaR-CTD [3], 4 ppb on receptor BlaR-CTD [1] and 4 ppb on receptor BlaR-CTD [2].

Turning to `CO/N=C(\C(=O)N[C@@H]1C(=O)N2C(C(=O)O)=C(CSC(=O)c3ccco3)CS[C@H]12)c1csc(N)n1` [Ceftiofur, ceftiofur], the “lowest concentration detected” value on receptor BlaR-CTD [1] is on record as 100 ppb; on receptor BlaR-CTD [2], 80 ppb; at receptor BlaR-CTD [4] (in 20 minutes, positive when first band is less intense than second band), 30 ppb. Further, the “Intensity 1st band” value at receptor BlaR-CTD [4] (20 ppb ceftiofur in fresh milk) is listed as 6; at receptor BlaR-CTD [4] (30 ppb ceftiofur in fresh milk), 5; at receptor BlaR-CTD [4] (40 ppb ceftiofur in fresh milk) it was 4; at receptor BlaR-CTD [4] (50 ppb ceftiofur in fresh milk), 3; at receptor BlaR-CTD [4] (60 ppb ceftiofur in fresh milk), 3.

With `CCOc1ccc2ccccc2c1C(=O)N[C@@H]1C(=O)N2[C@@H]1SC(C)(C)[C@@H]2C(=O)O` [nafcillin], the “lowest concentration detected” value at receptor BlaR-CTD [1] and at receptor BlaR-CTD [2] was 20 ppb throughout.

Regarding `CC(=O)OCC1=C(C(=O)O)N2C(=O)[C@@H](NC(=O)CSc3ccncc3)[C@H]2SC1` [Cephapirin, cephapirin], the “lowest concentration detected” value was found to be 20 ppb on receptor BlaR-CTD [3], 16 ppb on receptor BlaR-CTD [1] and 6 ppb on receptor BlaR-CTD [2]. The “Intensity 1st band” value came out at 6 on receptor BlaR-CTD [2] (4 ppb cephapirin in fresh milk); 5 on receptor BlaR-CTD [2] (6 ppb cephapirin in fresh milk); 4 at receptor BlaR-CTD [2] (8 ppb cephapirin in fresh milk); 3 at receptor BlaR-CTD [2] (10 ppb cephapirin in fresh milk); 3 at receptor BlaR-CTD [2] (12 ppb cephapirin in fresh milk).

With `CC1(C)S[C@@H]2[C@H](NC(=O)[C@H](N)c3ccc(O)cc3)C(=O)N2[C@H]1C(=O)O` [amoxicillin], the entries for the “lowest concentration detected” value at receptor BlaR-CTD [3], at receptor BlaR-CTD [1] and on receptor BlaR-CTD [2] were 5 ppb, 4 ppb and 4 ppb, respectively.
